Values after ≈ are worked out from the molar mass of the structure shown.

In assay [1] the test system is Mycobacterium tuberculosis. Briefly: Antitubercular activity against Mycobacterium tuberculosis H37Rv. Type of assay: functional.
For assay [2], the target named is Acetylcholinesterase (Electrophorus electricus) (UniProt O42275). Briefly: Potency index, ratio of galantamine IC50 to test compound IC50 for electric eel AChE.
Assay [3] concerns the target T1, Acetylcholinesterase (Electrophorus electricus, UniProt O42275). Description: Inhibition of electric eel AChE.
Assay [4] deals with T2, Estrogen receptor (Homo sapiens) (UniProt P03372).
T2 sequence (whole entry): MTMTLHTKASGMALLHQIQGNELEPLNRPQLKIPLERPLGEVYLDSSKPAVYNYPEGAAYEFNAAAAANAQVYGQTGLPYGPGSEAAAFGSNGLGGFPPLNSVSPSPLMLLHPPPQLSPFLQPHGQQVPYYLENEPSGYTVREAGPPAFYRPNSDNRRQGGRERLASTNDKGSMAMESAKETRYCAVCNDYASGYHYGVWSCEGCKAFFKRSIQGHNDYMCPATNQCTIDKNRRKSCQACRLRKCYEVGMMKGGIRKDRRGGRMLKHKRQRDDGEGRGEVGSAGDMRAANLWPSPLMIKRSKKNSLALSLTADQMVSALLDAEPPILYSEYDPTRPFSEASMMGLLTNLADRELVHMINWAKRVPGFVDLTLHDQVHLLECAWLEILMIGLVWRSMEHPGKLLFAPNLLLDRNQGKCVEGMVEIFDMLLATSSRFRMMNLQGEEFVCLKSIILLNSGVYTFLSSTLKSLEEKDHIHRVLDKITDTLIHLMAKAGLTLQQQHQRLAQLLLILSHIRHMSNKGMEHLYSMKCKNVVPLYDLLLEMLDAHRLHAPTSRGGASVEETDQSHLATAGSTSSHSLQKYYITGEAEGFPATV
Briefly: Displacement of [3H] estradiol from human estrogen receptor alpha after 18 hrs by scintillation counting analysis.

In assay [5] the target is T3, Estrogen receptor (Homo sapiens, UniProt P03372).
T3 sequence (P03372 whole entry): T2 sequence (whole entry)
Description: Inhibition of human estrogen receptor alpha expressed in human MCF7 cells assessed as reduction in estrogen-induced transcriptional activation after 6 hrs by beta galactosidase reporter gene assay. Type of assay: cell-based. On the technique in general: A reporter such as luciferase makes a cellular process visible.

Assay [6] deals with T3, Estrogen receptor. Description: Inhibition of human estrogen receptor alpha expressed in human LNCAP cells assessed as reduction in estrogen-induced transcriptional activation after 6 hrs by beta galactosidase reporter gene assay. Type of assay: cell-based.
Assay [7] deals with T3, Estrogen receptor. Description: Inhibition of human estrogen receptor alpha expressed in human MDA-MB-231 cells assessed as reduction in estrogen-induced transcriptional activation after 6 hrs by beta galactosidase reporter gene assay. Type of assay: cell-based.
Assay [8] has as its target T3, Estrogen receptor. Description: Inhibition of human estrogen receptor alpha expressed in HEK293 cells assessed as reduction in estrogen-induced transcriptional activation after 6 hrs by beta galactosidase reporter gene assay. Type of assay: cell-based.
Assay [9] deals with MOLT-4. Description: Antiproliferative activity against human MOLT4 cells. Type of assay: functional, cell-based.
In assay [10] the test system is UCLA P-3. Briefly: Antiproliferative activity against human UCLA-P3 cells. Type of assay: functional, cell-based.
For assay [11], the target named is T3, Estrogen receptor. Briefly: Inhibition of estrogen receptor in human MCF-7 cells. Type of assay: cell-based.
The target in assay [12] is Receptor tyrosine-protein kinase erbB-2 (Homo sapiens, UniProt P04626). Briefly: Inhibition of HER2 in human MCF-7 cells. Type of assay: cell-based.
Chain of Receptor tyrosine-protein kinase erbB-2 (P04626 whole entry): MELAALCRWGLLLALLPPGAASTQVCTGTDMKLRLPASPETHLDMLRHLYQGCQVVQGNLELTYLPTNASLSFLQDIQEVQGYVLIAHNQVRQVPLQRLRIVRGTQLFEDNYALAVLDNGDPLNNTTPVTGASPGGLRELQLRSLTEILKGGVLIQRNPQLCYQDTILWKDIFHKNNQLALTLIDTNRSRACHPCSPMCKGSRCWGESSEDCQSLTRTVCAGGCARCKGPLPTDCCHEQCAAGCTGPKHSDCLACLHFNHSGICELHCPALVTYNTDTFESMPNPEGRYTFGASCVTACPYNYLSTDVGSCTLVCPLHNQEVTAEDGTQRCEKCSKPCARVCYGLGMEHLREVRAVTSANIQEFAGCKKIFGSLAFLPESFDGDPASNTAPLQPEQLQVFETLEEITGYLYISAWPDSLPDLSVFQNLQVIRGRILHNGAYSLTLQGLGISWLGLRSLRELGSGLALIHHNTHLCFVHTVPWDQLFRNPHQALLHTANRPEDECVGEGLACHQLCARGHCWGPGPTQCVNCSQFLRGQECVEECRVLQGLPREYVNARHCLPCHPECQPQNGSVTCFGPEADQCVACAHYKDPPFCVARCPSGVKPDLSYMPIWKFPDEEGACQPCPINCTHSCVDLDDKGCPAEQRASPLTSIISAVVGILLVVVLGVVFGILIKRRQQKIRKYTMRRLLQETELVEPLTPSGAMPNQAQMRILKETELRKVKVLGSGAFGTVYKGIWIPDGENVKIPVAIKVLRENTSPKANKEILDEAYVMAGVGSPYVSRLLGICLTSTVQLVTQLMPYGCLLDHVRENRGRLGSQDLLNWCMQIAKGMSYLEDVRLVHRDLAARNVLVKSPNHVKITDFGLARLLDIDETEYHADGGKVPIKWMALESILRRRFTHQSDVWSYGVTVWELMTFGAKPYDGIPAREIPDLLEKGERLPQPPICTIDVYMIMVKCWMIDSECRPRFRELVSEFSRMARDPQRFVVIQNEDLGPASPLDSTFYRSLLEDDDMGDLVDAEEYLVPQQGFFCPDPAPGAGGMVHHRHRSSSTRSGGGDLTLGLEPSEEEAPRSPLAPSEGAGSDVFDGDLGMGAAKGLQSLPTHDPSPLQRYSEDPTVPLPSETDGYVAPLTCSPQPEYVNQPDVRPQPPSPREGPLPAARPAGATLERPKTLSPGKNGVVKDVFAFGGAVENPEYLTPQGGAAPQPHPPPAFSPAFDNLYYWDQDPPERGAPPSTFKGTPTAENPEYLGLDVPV
The subject of assay [13] is IGR-1. Description: Cytotoxicity against human IGR-1 cells assessed as reduction in cell viability after 24 to 72 hrs by MTT assay. The class given is functional, cell-based. In general terms: Formazan colour is commonly taken as a measure of viable cells.
A short description of assay [14]: Cytotoxicity against mouse […] cells assessed as reduction in cell viability after 24 to 72 hrs by MTT assay. Type of assay: cell-based.
A short description of assay [15]: Cytotoxicity against bovine GM07373 cells assessed as reduction in cell viability after 24 to 72 hrs by MTT assay. The class given is cell-based. As to conditions: Bos taurus.
In assay [16] the test system is P338. Description: Cytotoxicity against mouse […] cells assessed as reduction in cell viability after 24 to 72 hrs by MTT assay. Type of assay: functional, cell-based.
Assay [17] in a line: Inhibition of bovine brain tubulin polymerization after 10 mins by UV-vis spectrophotometric analysis. More on the design: species or system Bos taurus.
Assay [18] concerns the target T1, Acetylcholinesterase. Briefly: Inhibition of electric eel AChE using acetylthiocholine iodide as substrate measured for 120 secs by spectrophotometric analysis.
Assay [19] relates to L1210. Briefly: Antiproliferative activity against mouse L1210 cells after 2 to 3 days by Coulter counter method. Type of assay: functional, cell-based.

T1 sequence (O42275 whole entry): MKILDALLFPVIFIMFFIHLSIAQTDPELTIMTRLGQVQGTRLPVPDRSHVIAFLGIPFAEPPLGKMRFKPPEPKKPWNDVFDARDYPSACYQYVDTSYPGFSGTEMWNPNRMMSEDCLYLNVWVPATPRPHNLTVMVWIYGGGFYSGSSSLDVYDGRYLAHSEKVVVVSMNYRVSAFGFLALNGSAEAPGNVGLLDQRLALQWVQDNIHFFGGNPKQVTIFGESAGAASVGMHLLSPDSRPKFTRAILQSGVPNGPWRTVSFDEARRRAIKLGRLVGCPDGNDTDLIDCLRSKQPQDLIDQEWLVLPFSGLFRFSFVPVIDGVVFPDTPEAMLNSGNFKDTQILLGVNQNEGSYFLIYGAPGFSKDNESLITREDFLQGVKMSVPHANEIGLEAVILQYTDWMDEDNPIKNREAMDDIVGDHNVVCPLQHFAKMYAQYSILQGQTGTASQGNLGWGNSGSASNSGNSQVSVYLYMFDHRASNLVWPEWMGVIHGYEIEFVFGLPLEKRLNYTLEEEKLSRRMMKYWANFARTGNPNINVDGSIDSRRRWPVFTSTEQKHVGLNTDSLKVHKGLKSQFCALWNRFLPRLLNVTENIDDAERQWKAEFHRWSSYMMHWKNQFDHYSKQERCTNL
Chain of Acetylcholinesterase (Electrophorus electricus) (O42275 24-633 limits assumed): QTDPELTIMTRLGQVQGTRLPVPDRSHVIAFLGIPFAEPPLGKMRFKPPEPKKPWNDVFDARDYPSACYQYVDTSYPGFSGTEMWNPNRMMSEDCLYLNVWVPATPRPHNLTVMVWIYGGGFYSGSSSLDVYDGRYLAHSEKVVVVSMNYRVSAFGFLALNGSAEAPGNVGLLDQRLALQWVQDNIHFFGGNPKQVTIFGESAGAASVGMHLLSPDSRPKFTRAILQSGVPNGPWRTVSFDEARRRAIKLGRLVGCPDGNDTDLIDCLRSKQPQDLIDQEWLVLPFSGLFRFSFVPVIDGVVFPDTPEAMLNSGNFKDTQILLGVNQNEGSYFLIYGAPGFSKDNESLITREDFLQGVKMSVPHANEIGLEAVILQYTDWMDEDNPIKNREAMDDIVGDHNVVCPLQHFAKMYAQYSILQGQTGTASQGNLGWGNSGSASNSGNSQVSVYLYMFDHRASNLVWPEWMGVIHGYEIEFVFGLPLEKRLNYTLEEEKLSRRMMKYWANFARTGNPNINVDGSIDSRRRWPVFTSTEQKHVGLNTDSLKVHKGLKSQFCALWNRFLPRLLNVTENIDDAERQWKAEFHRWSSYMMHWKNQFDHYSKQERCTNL

Broadly, the MIC is the lowest concentration that inhibits growth of the organism. In turn, `C[C@@]12CC[C@@H]3[C@@](CC[C@H]4[C@@]3(C)CCC[C@@]4(C)C(=O)O)(C/C1=N\NC(=O)c1cccnc1)C2` yielded an MIC in assay [1] of 10 to 20 µg/mL (≈ 22.9 to 45.7 µM). The term IC50 denotes the concentration at which inhibition is half-maximal. For the molecule `COc1ccc2c3c1O[C@H]1C[C@@H](O)C=C[C@]31CC[N+](CCCCCCCCCCN1C(=O)c3ccccc3C1=O)=C2`, the Ratio IC50 in assay [2] fell in the range of 16 to 36. In assay [3], this molecule gave an IC50 of 0.022 µM. `C[C@]12CC[C@@H]3c4ccc(O)cc4CC[C@H]3[C@@H]1CC[C@@]2(O)C#CC(=O)OCC1CC#C/C=C\C#CCC1` (some centres not stated) yielded an Activity in [4] of 0.51 µM. The IC50 in assay [5] is 31 µM; in [6], 33 µM; in assay [7], 48 µM; in [8], 10 µM. As for `CCN[C@H]1CO[C@@H](O[C@H]2[C@H](OCOC[C@@]34C#CCCC#C[C@@H]5N(C(=O)OCCS(=O)(=O)c6ccccc6)c6ccccc6[C@]36O[C@@]56CCC4)O[C@H](C)[C@@H](NO[C@H]3C[C@H](O)[C@H](SC(=O)c4c(C)c(I)c(O[C@@H]5O[C@@H](C)[C@H](O)[C@@H](OC)[C@H]5O)c(OC)c4OC)[C@@H](C)O3)[C@@H]2O)C[C@@H]1OC`, the figures for the IC50 in assay [9] and in assay [10] were 0.16 µM and 0.0001 µM, respectively. Regarding `CO[C@H]1/C=C\C=C(/C)C(=O)NC2=CC(=O)C(NC/C=C/CCC[C@@H]3C[C@H]4[C@@H]5CCc6cc(O)ccc6[C@H]5CC[C@]4(C)[C@H]3O)=C(C[C@@H](C)C[C@H](OC)[C@H](O)[C@@H](C)/C=C(\C)[C@@H]1OC(N)=O)C2=O` (stereo in doubt), the IC50 in assay [11] was determined as 0.08 µM; in assay [12] it was 0.1 µM. With `COC(=O)[C@]1(C)CCC[C@@]2(C)[C@@H]3CC[C@@]4(C)C[C@]3(CC[C@@H]21)C/C4=N\NC(=O)c1ccncc1`, the MIC in assay [1] was in the range of 10 to 20 µg/mL (≈ 22.1 to 44.3 µM). Take `CC(C)[C@@H](C)/C=C/[C@@H](C)[C@H]1CC[C@H]2c3ccc4c(c3CC[C@]12C)C(=O)c1c(O)ccc(O)c1C4=O`: the IC50 in [13] is 23 µM; in [14], 23 µM; in assay [15], 34 µM; in [16] it was 49 µM. The molecule `COc1cc2c(ccc1=O)[C@H]1CC[C@]3(C)[C@@H](O)CC[C@H]3[C@@H]1CC2` registered an IC50 in assay [17] of 2.1 µM. `COc1ccc2c3c1O[C@H]1C[C@@H](O)CC[C@@]31CCN(CCCCCCCCCCCC[N+]1=Cc3ccc(OC)c4c3[C@@]3(C=C[C@H](O)C[C@@H]3O4)CC1)C2` showed an IC50 in assay [18] of 0.012 µM.

With `C[C@@]12CC[C@@H]3[C@@](CC[C@H]4[C@@]3(C)CCC[C@@]4(C)C(=O)O)(C/C1=N\NC(=O)c1ccccn1)C2`, the MIC in assay [1] was 10 to 20 µg/mL (≈ 22.9 to 45.7 µM). The molecule `COC(=O)[C@]1(C)CCC[C@@]2(C)[C@@H]3CC[C@@]4(C)C[C@]3(CC[C@@H]21)C/C4=N\NC(=O)c1cccnc1` came in with an MIC in assay [1] of 10 to 20 µg/mL (≈ 22.1 to 44.3 µM). `Cc1n[nH]c2c(O)cc3c(c12)C(CCl)CN3C(=O)c1cc(C(=O)Nc2cc(C(=O)Nc3cc(C(=O)Nc4cc(C(=O)NCCC(=N)N)n(C)c4)n(C)c3)n(C)c2)n(C)n1` (configuration not stated): in assay [19], the midpoint of inhibition, the IC50, lay at 7.4 µM.

The record behind these values is ChEMBL document CHEMBL4229384, “Success stories of natural product-based hybrid molecules for multi-factorial diseases” (Eur J Med Chem, 2018).
